This note sets out measurements from patent US20110190127A1, “NOVEL HERBICIDES” (SYNGENTA CROP PROTECTION, INC., priority 2008, published 2011).

Format in all cases: in vivo
The test system of assay [1] is Avena fatua (AVEFA). Put plainly: Post-emergence herbicidal activity, glasshouse pot test. Particulars: Rate 500 g/ha; sprayed after 10 days cultivation, evaluated 15 days later; 100=total damage to plant, 0=no damage to plant. On the procedure:
(§1) Monocotyledonous and dicotyledonous test plants were sown in standard soil in pots. After cultivation for one day (pre-emergence) or after 10 days cultivation (post-emergence) under controlled conditions in a glasshouse, the plants were sprayed with an aqueous spray solution derived from the formulation of the technical active ingredient in 0.6 ml acetone and 45 ml formulation solution containing 10.6% Emulsogen EL (Registry number 61791-12-6), 42.2% N-methyl pyrrolidone, 42.2% dipropylene glycol monomethyl ether (Registry number 34590-94-8) and 0.2% X-77 (Registry number 11097-66-8). The test plants were then grown in a greenhouse under optimum conditions until, 15 days later for post-emergence and 20 days for pre-emergence, the test was evaluated (100=total damage to plant; 0=no damage to plant). Test Plants: Alopecurus myosuroides (ALOMY), Avena fatua (AVEFA), Lolium perenne (LOLPE), Setaria faberi (SETFA), Digitaria sanguinalis (DIGSA), Echinochloa crus-galli (ECHCG)

For assay [2], the system named is Digitaria sanguinalis (DIGSA). The description is as above. The conditions noted are these: Rate 500 g/ha; sprayed after 10 days cultivation, evaluated 15 days later; 100=total damage to plant, 0=no damage to plant. The protocol:
as §1

Assay [3] deals with Alopecurus myosuroides (ALOMY). Described as above. Particulars: Rate 500 g/ha; sprayed after 10 days cultivation, evaluated 15 days later; 100=total damage to plant, 0=no damage to plant. On the procedure: as §1
Assay [4] has as its system Lolium perenne (LOLPE). Described as above. Particulars: Rate 500 g/ha; sprayed after 10 days cultivation, evaluated 15 days later; 100=total damage to plant, 0=no damage to plant. On the procedure:
as §1

Assay [5] concerns Setaria faberi (SETFA). The description is as above. Particulars: Rate 500 g/ha; sprayed after 10 days cultivation, evaluated 15 days later; 100=total damage to plant, 0=no damage to plant. On the procedure: as §1
In assay [6] the test system is Echinochloa crus-galli (ECHCG). Described as above. Particulars: Rate 500 g/ha; sprayed after 10 days cultivation, evaluated 15 days later; 100=total damage to plant, 0=no damage to plant. The protocol: as §1
Assay [7] concerns Avena fatua (AVEFA). Put plainly: Pre-emergence herbicidal activity, glasshouse pot test. Particulars: Rate 500 g/ha; sprayed after one day cultivation, evaluated 20 days later; 100=total damage to plant, 0=no damage to plant. On the procedure: as §1
In assay [8] the test system is Digitaria sanguinalis (DIGSA). Described as above. The conditions noted are these: Rate 500 g/ha; sprayed after one day cultivation, evaluated 20 days later; 100=total damage to plant, 0=no damage to plant. The protocol: as §1
Assay [9] deals with Alopecurus myosuroides (ALOMY). The assay is described as above. Particulars: Rate 500 g/ha; sprayed after one day cultivation, evaluated 20 days later; 100=total damage to plant, 0=no damage to plant. The protocol: as §1
For assay [10], the system named is Lolium perenne (LOLPE). Described as above. Particulars: Rate 500 g/ha; sprayed after one day cultivation, evaluated 20 days later; 100=total damage to plant, 0=no damage to plant. The protocol:
as §1

For assay [11], the system named is Setaria faberi (SETFA). Described as above. The conditions noted are these: Rate 500 g/ha; sprayed after one day cultivation, evaluated 20 days later; 100=total damage to plant, 0=no damage to plant. The protocol: as §1
The subject of assay [12] is Echinochloa crus-galli (ECHCG). Described as above. The conditions noted are these: Rate 500 g/ha; sprayed after one day cultivation, evaluated 20 days later; 100=total damage to plant, 0=no damage to plant. The protocol: as §1

SMILES strings stand for the structures.

For `CCc1ccc(-c2ccc(Cl)cc2Cl)cc1C1=C(Cl)C(C)(C)OC(C)(C)C1=O` [Compound A1], in [1], the “Post-Emergence Activity AVEFA” value is 50. Also, in assay [2], the “Post-Emergence Activity DIGSA” value was determined as 100. In addition, in [3], the “Post-Emergence Activity ALOMY” value is 40. The “Post-Emergence Activity LOLPE” value in [4] stood at 60. Further, in assay [5], the “Post-Emergence Activity SETFA” value turned out to be 60. Further, in assay [6], the “Post-Emergence Activity ECHCG” value is 100. Also, the “Pre-Emergence Activity AVEFA” value in [7] is listed as 0. Besides, in assay [8], the “Pre-Emergence Activity DIGSA” value came out at 70. In addition, in [9], the “Pre-Emergence Activity ALOMY” value turned out to be 10. Besides, the “Pre-Emergence Activity LOLPE” value in assay [10] is reported as 20. In addition, the “Pre-Emergence Activity SETFA” value in assay [11] came to 0. In [12], the “Pre-Emergence Activity ECHCG” value is listed as 0.
`CCc1ccc(-c2ccc(Cl)cc2Cl)cc1C1=C(SC)C(C)(C)OC(C)(C)C1=O` [Compound A2]: the “Post-Emergence Activity AVEFA” value in [1] was determined as 0. Besides, the “Post-Emergence Activity DIGSA” value in assay [2] worked out at 0. Further, the “Post-Emergence Activity ALOMY” value in assay [3] turned out to be 0. Further, the “Post-Emergence Activity LOLPE” value in assay [4] came to 0. For the same compound, the “Post-Emergence Activity SETFA” value in [5] was determined as 10. Besides, in assay [6], the “Post-Emergence Activity ECHCG” value is on record as 20. Besides, the “Pre-Emergence Activity AVEFA” value in assay [7] stood at 0. Moreover, the “Pre-Emergence Activity DIGSA” value in assay [8] was 20. In addition, in assay [9], the “Pre-Emergence Activity ALOMY” value came to 0. Moreover, in assay [10], the “Pre-Emergence Activity LOLPE” value was 20. Besides, the “Pre-Emergence Activity SETFA” value in assay [11] came out at 10. The “Pre-Emergence Activity ECHCG” value in [12] turned out to be 20.
